15 compounds from PubChem BioAssay (NCI) can be followed below.

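Assay format: 96-well plates, 48-hour exposure. TGI marks complete inhibition of growth.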 A value given as a limit tells only on which side of the number the result lay.

Among the test systems are COLO 205 colon; M14 melanoma; NCI-H23 lung; OVCAR-4 ovarian; SK-MEL-28 melanoma; SK-OV-3 ovarian; SW-620 colon; UACC-62 melanoma; LOX IMVI melanoma; SN12C renal; HOP-92 NSCLC.
Holding throughout (assay): NCI tumour cell line growth inhibition, 48 h

Take `CC(C)=NNC=N/C(C#N)=C(\N)C#N`: the TGI in the experiment on COLO 205 colon, in the experiment on M14 melanoma, with NCI-H23 lung, with OVCAR-4 ovarian, in the experiment on SK-MEL-28 melanoma and with SK-OV-3 ovarian was greater than 100 µM in each case. For the same compound, the TGI in the experiment on SW-620 colon and with UACC-62 melanoma was greater than 100 µM throughout.

As for `CC(NC(=O)C(N)CC(=O)O)NC(=O)C1CCC1` (stereo unspecified), the TGI in the experiment on COLO 205 colon, in the experiment on LOX IMVI melanoma, in the experiment with M14 melanoma, in the experiment on NCI-H23 lung, with OVCAR-4 ovarian and with SK-MEL-28 melanoma was greater than 100 µM each time. Moreover, the TGI with SK-OV-3 ovarian, in the experiment on SN12C renal, in the experiment on SW-620 colon and with UACC-62 melanoma was greater than 100 µM throughout.

Regarding `O=C(O)CCc1ccc2c(c1)C(=O)CC2`, the TGI in the experiment on COLO 205 colon, in the experiment with LOX IMVI melanoma, in the experiment on M14 melanoma, in the experiment with NCI-H23 lung, in the experiment on OVCAR-4 ovarian and in the experiment on SK-MEL-28 melanoma was greater than 100 µM in each case. Further, the TGI with SK-OV-3 ovarian, with SN12C renal, in the experiment on SW-620 colon and in the experiment on UACC-62 melanoma was greater than 100 µM in each case.

Turning to `Nc1cc(N2CCCC2)nc(=O)n1-c1ccccc1`, the TGI in the experiment on COLO 205 colon, in the experiment on HOP-92 NSCLC, in the experiment with LOX IMVI melanoma, in the experiment with M14 melanoma, in the experiment on NCI-H23 lung and in the experiment on OVCAR-4 ovarian was greater than 100 µM each time. The TGI in the experiment with SK-MEL-28 melanoma, in the experiment on SN12C renal and in the experiment on SW-620 colon was greater than 100 µM each time.

As for `O=C(O)c1ccc(NC(NC(=O)C(C(F)(F)F)C(F)(F)F)(C(F)(F)F)C(F)(F)F)cc1`, the TGI with COLO 205 colon, in the experiment on LOX IMVI melanoma, in the experiment on M14 melanoma, with NCI-H23 lung, in the experiment on SK-MEL-28 melanoma and with SK-OV-3 ovarian was greater than 100 µM in each case. In addition, the TGI in the experiment with SN12C renal and with SW-620 colon was greater than 100 µM each time.

As to `N#C/C(C(=O)Nc1ccc(Cl)cc1)=C(/N)N1CCCCC1`, the TGI in the experiment on COLO 205 colon, with HOP-92 NSCLC, in the experiment on LOX IMVI melanoma, in the experiment with M14 melanoma, with NCI-H23 lung and with SK-MEL-28 melanoma was greater than 100 µM in each case. Besides, the TGI with SK-OV-3 ovarian, with SN12C renal, in the experiment with SW-620 colon and with UACC-62 melanoma was greater than 100 µM throughout.

Regarding `CN(C)CCN=C1Nc2ccccc2C(=S)N2CSCC12` (stereo unspecified), the TGI in the experiment with COLO 205 colon, in the experiment on LOX IMVI melanoma, with M14 melanoma, in the experiment on OVCAR-4 ovarian, in the experiment with SK-MEL-28 melanoma and with SK-OV-3 ovarian was greater than 100 µM throughout. Also, the TGI in the experiment on SN12C renal, with SW-620 colon and in the experiment with UACC-62 melanoma was greater than 100 µM in each case.

Take `COc1ccc(OCc2ccc3nc(-c4ccccc4)c(Cl)nc3c2)cc1`: the TGI with COLO 205 colon is 81.5 µM; in the experiment on HOP-92 NSCLC, 46.7 µM; with LOX IMVI melanoma it was greater than 100 µM; in the experiment on M14 melanoma, greater than 100 µM; in the experiment on NCI-H23 lung, 67.9 µM; in the experiment with OVCAR-4 ovarian it was 95.4 µM. Also, the TGI with SK-MEL-28 melanoma, in the experiment with SN12C renal and in the experiment on SW-620 colon was greater than 100 µM throughout.

Turning to `CC1Oc2c(c(=O)oc3ccccc23)[C@@]1(C)CC1C[C@H](C)C(=O)O1` (stereo partly specified), the TGI in the experiment with COLO 205 colon was greater than 100 µM; in the experiment with LOX IMVI melanoma, greater than 100 µM; with M14 melanoma it was 39.6 µM; with NCI-H23 lung it was 40.9 µM; with SK-MEL-28 melanoma, 38.7 µM; in the experiment with SK-OV-3 ovarian it was greater than 100 µM. Further, the TGI was greater than 100 µM in the experiment with SW-620 colon and 42.4 µM in the experiment on UACC-62 melanoma.

Take `Cc1ccc(S(=O)(=O)N2CCSCCN(S(=O)(=O)c3ccc(C)cc3)CCN(S(=O)(=O)c3ccc(C)cc3)CC2)cc1`: the TGI with COLO 205 colon was greater than 100 µM; in the experiment with HOP-92 NSCLC, 9.06 µM; with M14 melanoma it was greater than 100 µM; with NCI-H23 lung, greater than 100 µM; in the experiment on OVCAR-4 ovarian, greater than 100 µM; with SK-MEL-28 melanoma, greater than 100 µM. Further, the TGI was 86.7 µM in the experiment with SK-OV-3 ovarian, greater than 100 µM in the experiment with SN12C renal, greater than 100 µM in the experiment on SW-620 colon and greater than 100 µM in the experiment on UACC-62 melanoma.

`Cc1ncc2c(=O)c3c(oc2n1)c1ccccc1n3Cc1ccccc1`: the TGI in the experiment with COLO 205 colon, in the experiment with LOX IMVI melanoma, with NCI-H23 lung, in the experiment with SK-MEL-28 melanoma, in the experiment on SN12C renal and in the experiment with SW-620 colon was greater than 100 µM in each case. In the experiment on UACC-62 melanoma, the TGI is 93.9 µM.

In the case of `COc1ccc2cc(C(=O)O)ccc2c1OC`, the TGI in the experiment on COLO 205 colon, in the experiment with M14 melanoma, in the experiment on NCI-H23 lung, in the experiment with SK-OV-3 ovarian, with SN12C renal and in the experiment on SW-620 colon was greater than 100 µM throughout. The TGI in the experiment with UACC-62 melanoma was greater than 100 µM.

Regarding `COc1ccc(C(CC(=O)C(C)(C)CN2CCCCC2)SCCS(=O)(=O)O)cc1` (stereo unspecified), the TGI in the experiment on COLO 205 colon was greater than 100 µM; in the experiment on HOP-92 NSCLC, 47.2 µM; with M14 melanoma, 57.2 µM; with NCI-H23 lung it was 98.7 µM; in the experiment on OVCAR-4 ovarian it was greater than 100 µM; with SK-OV-3 ovarian, greater than 100 µM. The TGI in the experiment on SN12C renal, in the experiment with SW-620 colon and in the experiment with UACC-62 melanoma was greater than 100 µM in each case.

With `CCc1c(Cc2[nH]c(Cc3[nH]c(C=O)c(C)c3CC)c(CC)c2CC)[nH]c(C=O)c1C`, the TGI with COLO 205 colon was greater than 100 µM; in the experiment on LOX IMVI melanoma, greater than 100 µM; in the experiment with M14 melanoma it was greater than 100 µM; with NCI-H23 lung it was greater than 1 µM; in the experiment on OVCAR-4 ovarian, greater than 1 µM; in the experiment with SK-MEL-28 melanoma it was greater than 100 µM. In addition, the TGI with SK-OV-3 ovarian, in the experiment with SN12C renal, with SW-620 colon and in the experiment with UACC-62 melanoma was greater than 100 µM in each case.

Turning to `C[n+]1c(-c2ccc(/C=N/NC(=O)C(=O)N/N=C/c3ccc(-c4cn5ccsc5[n+]4C)cc3)cc2)cn2ccsc21`, the TGI with COLO 205 colon, in the experiment with M14 melanoma, with OVCAR-4 ovarian, in the experiment on SK-MEL-28 melanoma, in the experiment with SK-OV-3 ovarian and in the experiment with SN12C renal was greater than 100 µM each time. The TGI with SW-620 colon is greater than 100 µM.
